# Test results reported in PubChem BioAssay (NCI).
#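 Interpolation was linear, between the two tested concentrations surrounding the appropriate level; five concentrations were tested over 48 hours in 96-well plates. TGI marks complete inhibition of growth.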
# Tests used:
# Test in all cases: NCI-60 cell line screen, 48 h
# LOX IMVI melanoma = tested on: LOX IMVI melanoma
# COLO 205 colon = tested on: COLO 205 colon
# OVCAR-5 ovarian = tested on: OVCAR-5 ovarian
# MALME-3M melanoma = tested on: MALME-3M melanoma
# HOP-62 NSCLC = tested on: HOP-62 NSCLC
# OVCAR-8 ovarian = tested on: OVCAR-8 ovarian
# NCI-H522 lung = tested on: NCI-H522 lung
# HOP-92 NSCLC = tested on: HOP-92 NSCLC
# CCRF-CEM leukemia = tested on: CCRF-CEM leukemia
# UACC-62 melanoma = tested on: UACC-62 melanoma
Compound,TGI (LOX IMVI melanoma),TGI (COLO 205 colon),TGI (OVCAR-5 ovarian),TGI (MALME-3M melanoma),TGI (HOP-62 NSCLC),TGI (OVCAR-8 ovarian),TGI (NCI-H522 lung),TGI (HOP-92 NSCLC),TGI (CCRF-CEM leukemia),TGI (UACC-62 melanoma)
Clc1ccc(C[P+](c2ccccc2)(c2ccccc2)c2ccccc2)cc1Cl,11.7 µM,2.95 µM,19.2 µM,7.8 µM,21.2 µM,12.4 µM,10.3 µM,6.02 µM,28.3 µM,9.33 µM
N/C1=C/C(=O)NC(=O)c2c(c3ccccc3oc2=O)C1,> 100 µM,> 100 µM,> 100 µM,> 100 µM,> 100 µM,> 100 µM,> 100 µM,> 100 µM,> 100 µM,> 100 µM
C(=Nc1ccc(-c2nc3ccccc3s2)cc1)c1ccc[nH]1,33.3 µM,31.8 µM,51.4 µM,32.2 µM,27.6 µM,> 100 µM,28 µM,40.1 µM,57.4 µM,30.7 µM
Cc1cccc(CC(Cc2ccc(C)cc2C(=O)O)C(=O)O)c1 (stereo not given),> 100 µM,> 100 µM,> 100 µM,> 100 µM,> 100 µM,> 100 µM,> 100 µM,> 100 µM,> 100 µM,96.5 µM
CCOC(=O)c1c(SC(=O)c2ccc(OC)cc2)n(-c2ccccc2)c(=S)n(-c2ccccc2)c1=O,> 100 µM,> 100 µM,> 100 µM,> 100 µM,> 100 µM,76.5 µM,> 100 µM,> 100 µM,> 100 µM,> 100 µM
C=C1C(=O)OC2CC(C)C3C4OC4C(O)C3(C)C(O)C12 (stereo not given),65.3 µM,51.6 µM,108 µM,67.1 µM,127 µM,91.6 µM,26.4 µM,61.9 µM,56 µM,43.8 µM
COC1C(N(C)C)=C(c2ccccc2)C(=O)N2CCc3ccccc3C12 (stereo not given),> 100 µM,> 100 µM,> 100 µM,> 100 µM,> 100 µM,> 100 µM,> 100 µM,> 100 µM,> 100 µM,> 100 µM
O=c1[nH]c(NCc2ccc(Cl)cc2)nc2nc[nH]c12,> 100 µM,> 100 µM,> 100 µM,> 100 µM,> 100 µM,> 100 µM,> 100 µM,> 100 µM,> 100 µM,> 100 µM
O=c1c(Cc2ccc(Cl)cc2)nnc2sc(-c3ccc(-c4ccc(Cl)cc4Cl)o3)nn12,> 100 µM,> 100 µM,> 100 µM,> 100 µM,> 100 µM,> 100 µM,> 100 µM,> 100 µM,> 100 µM,> 100 µM
CC(C)(NC(=O)OCc1ccccc1)C(=O)OC(=O)C(C)(C)NC(=O)OCc1ccccc1,> 100 µM,> 100 µM,> 100 µM,> 100 µM,> 100 µM,> 100 µM,> 100 µM,> 100 µM,> 100 µM,> 100 µM
CC1(C)COC2=C(C1)C(=O)c1ccccc1C2=O,4.22 µM,4.04 µM,3.15 µM,3.29 µM,3.45 µM,1.53 µM,3.8 µM,3.85 µM,5.77 µM,2.53 µM
COC1(CC[C@@H](C)COC2OC(CO)C(O)C(O)C2O)O[C@H]2C[C@H]3[C@@H]4CC=C5C[C@@H](OC6OC(CO)C(O)C(OC7OC(CO)C(O)C(O)C7O)C6OC6OC(C)C(O)C(O)C6O)CC[C@]5(C)[C@H]4CC[C@]3(C)[C@H]2[C@@H]1C (stereo not given in full),7.03 µM,> 37.5 µM,> 39.4 µM,9.29 µM,24.3 µM,59.7 µM,15.3 µM,12.3 µM,> 100 µM,> 35.7 µM
